In PubChem BioAssay AID1963832 (Molecular Pharmacology Branch, DTP, NCI, 2024):

System: 885724-159-R-J1-PDC complex spheroid viability
Assay: Anticancer human tumor 885724-159-R-J1-PDC patient-derived pancreatic adenocarcinoma cell line growth inhibition [POLQ]
Details: for IC50: curve of first compound; for viability, T/C: stronger effect = lower value
Procedure, shortened: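 Patient-derived tumour cells were co-cultured with HUVEC and mesenchymal stem cells as multicellular spheroids at 37 °C. They were treated with POLQ inhibitors (novobiocin, ART-558, RP6685) alone or combined with other agents. Top concentrations were at or near clinical Cmax (otherwise 10 microM; SN-38 at 1 microM), decreasing in half-log steps.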

[1] = second compound 0.0316 µM, first compound 0.0316 µM
[2] = second compound 0.0316 µM, first compound 0.1 µM
[3] = second compound 0.0316 µM, first compound 0.316 µM
[4] = second compound 0.0316 µM, first compound 1 µM
[5] = second compound 0.0316 µM, first compound 3.16 µM
[6] = second compound 0.0316 µM, first compound 10 µM
[7] = second compound 0.1 µM, first compound 0.0316 µM
[8] = second compound 0.1 µM, first compound 0.1 µM
[9] = second compound 0.1 µM, first compound 0.316 µM
[10] = second compound 0.1 µM, first compound 1 µM
[11] = second compound 0.1 µM, first compound 3.16 µM
[12] = second compound 0.1 µM, first compound 10 µM
[13] = second compound 0.316 µM, first compound 0.0316 µM
[14] = second compound 0.316 µM, first compound 0.1 µM
[15] = second compound 0.316 µM, first compound 0.316 µM
[16] = second compound 0.316 µM, first compound 1 µM
[17] = second compound 0.316 µM, first compound 3.16 µM
[18] = second compound 0.316 µM, first compound 10 µM
[19] = second compound 1 µM, first compound 0.0316 µM
[20] = second compound 1 µM, first compound 0.1 µM
[21] = second compound 1 µM, first compound 0.316 µM
[22] = second compound 1 µM, first compound 1 µM
[23] = second compound 1 µM, first compound 3.16 µM
[24] = second compound 1 µM, first compound 10 µM
[25] = second compound 3.16 µM, first compound 0.0316 µM
[26] = second compound 3.16 µM, first compound 0.1 µM
[27] = second compound 3.16 µM, first compound 0.316 µM
[28] = second compound 3.16 µM, first compound 1 µM
[29] = second compound 3.16 µM, first compound 3.16 µM
[30] = second compound 3.16 µM, first compound 10 µM
[31] = second compound 10 µM, first compound 0.0316 µM
[32] = second compound 10 µM, first compound 0.1 µM
[33] = second compound 10 µM, first compound 0.316 µM
[34] = second compound 10 µM, first compound 1 µM
[35] = second compound 10 µM, first compound 3.16 µM
[36] = second compound 10 µM, first compound 10 µM
[37] = second compound 0.0316 µM, first compound 0.00316 µM
[38] = second compound 0.0316 µM, first compound 0.01 µM
[39] = second compound 0.1 µM, first compound 0.00316 µM
[40] = second compound 0.1 µM, first compound 0.01 µM
[41] = second compound 0.316 µM, first compound 0.00316 µM
[42] = second compound 0.316 µM, first compound 0.01 µM
[43] = second compound 1 µM, first compound 0.00316 µM
[44] = second compound 1 µM, first compound 0.01 µM
[45] = second compound 3.16 µM, first compound 0.00316 µM
[46] = second compound 3.16 µM, first compound 0.01 µM
[47] = second compound 10 µM, first compound 0.00316 µM
[48] = second compound 10 µM, first compound 0.01 µM
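Also: spheroids exposed to compounds for 7 days.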

Q: What does the source list for `CCCS(=O)(=O)Nc1ccc(F)c(C(=O)c2c[nH]c3ncc(-c4ccc(Cl)cc4)cc23)c1F` + Cc1cccc(N(C)C(=O)C2C(O)CCN2c2nc(C)cc(C(F)(F)F)c2C#N)c1?
A: IC50 (second compound 0.0316 µM): > 10000 nM; IC50 (second compound 0.1 µM): > 10000 nM; IC50 (second compound 0.316 µM): > 10000 nM; IC50 (second compound 1 µM): > 10000 nM; IC50 (second compound 3.16 µM): > 10000 nM; IC50 (second compound 10 µM): > 10000 nM; viability, T/C [1]: 100%; viability, T/C [2]: 118%; viability, T/C [3]: 116%; viability, T/C [4]: 142%; viability, T/C [5]: 140%; viability, T/C [6]: 94.6%; viability, T/C [7]: 99.8%; viability, T/C [8]: 111%; viability, T/C [9]: 122%; viability, T/C [10]: 142%; viability, T/C [11]: 158%; viability, T/C [12]: 99.4%; viability, T/C [13]: 103%; viability, T/C [14]: 112%; viability, T/C [15]: 135%; viability, T/C [16]: 158%; viability, T/C [17]: 158%; viability, T/C [18]: 100%; viability, T/C [19]: 117%; viability, T/C [20]: 102%; viability, T/C [21]: 123%; viability, T/C [22]: 144%; viability, T/C [23]: 160%; viability, T/C [24]: 97.5%; viability, T/C [25]: 108%; viability, T/C [26]: 109%; viability, T/C [27]: 121%; viability, T/C [28]: 155%; viability, T/C [29]: 151%; viability, T/C [30]: 86.6%; viability, T/C [31]: 101%; viability, T/C [32]: 105%; viability, T/C [33]: 143%; viability, T/C [34]: 153%; viability, T/C [35]: 137%; viability, T/C [36]: 82.9%

Q: What does the source list for `CNCc1ccc(-c2[nH]c3cc(F)cc4c3c2CCNC4=O)cc1` + Cc1cccc(N(C)C(=O)C2C(O)CCN2c2nc(C)cc(C(F)(F)F)c2C#N)c1?
A: IC50 (second compound 0.0316 µM): > 10000 nM; IC50 (second compound 0.1 µM): > 10000 nM; IC50 (second compound 0.316 µM): > 10000 nM; IC50 (second compound 1 µM): > 10000 nM; IC50 (second compound 3.16 µM): > 10000 nM; IC50 (second compound 10 µM): > 10000 nM; viability, T/C [1]: 92.2%; viability, T/C [2]: 102%; viability, T/C [3]: 98.2%; viability, T/C [4]: 89.2%; viability, T/C [5]: 90.3%; viability, T/C [6]: 83.9%; viability, T/C [7]: 104%; viability, T/C [8]: 104%; viability, T/C [9]: 91.1%; viability, T/C [10]: 92.7%; viability, T/C [11]: 93.3%; viability, T/C [12]: 83.2%; viability, T/C [13]: 104%; viability, T/C [14]: 94.1%; viability, T/C [15]: 102%; viability, T/C [16]: 87.9%; viability, T/C [17]: 92%; viability, T/C [18]: 88.5%; viability, T/C [19]: 92.2%; viability, T/C [20]: 89.5%; viability, T/C [21]: 88.7%; viability, T/C [22]: 113%; viability, T/C [23]: 91%; viability, T/C [24]: 86.3%; viability, T/C [25]: 102%; viability, T/C [26]: 90.8%; viability, T/C [27]: 97.5%; viability, T/C [28]: 96.3%; viability, T/C [29]: 92.5%; viability, T/C [30]: 85.2%; viability, T/C [31]: 97%; viability, T/C [32]: 103%; viability, T/C [33]: 85.2%; viability, T/C [34]: 88%; viability, T/C [35]: 86.1%; viability, T/C [36]: 88.5%

Q: Which results are given for `COc1cccc(OCCCN)c1-c1cc(Nc2cnc(C#N)cn2)n[nH]1` + Cc1cccc(N(C)C(=O)C2C(O)CCN2c2nc(C)cc(C(F)(F)F)c2C#N)c1?
A: IC50 (second compound 0.0316 µM): 10.6 nM; IC50 (second compound 0.1 µM): 20.7 nM; IC50 (second compound 0.316 µM): 10.6 nM; IC50 (second compound 1 µM): 9.08 nM; IC50 (second compound 3.16 µM): 8.91 nM; IC50 (second compound 10 µM): 9.02 nM; viability, T/C [37]: 71.8%; viability, T/C [38]: 51.3%; viability, T/C [1]: 42.9%; viability, T/C [2]: 44.4%; viability, T/C [3]: 46.4%; viability, T/C [4]: 45.6%; viability, T/C [39]: 78.5%; viability, T/C [40]: 57.1%; viability, T/C [7]: 42.5%; viability, T/C [8]: 46.8%; viability, T/C [9]: 45.5%; viability, T/C [10]: 48.6%; viability, T/C [41]: 71.9%; viability, T/C [42]: 52.2%; viability, T/C [13]: 40.9%; viability, T/C [14]: 42.7%; viability, T/C [15]: 41.8%; viability, T/C [16]: 48.7%; viability, T/C [43]: 73%; viability, T/C [44]: 48.5%; viability, T/C [19]: 41.9%; viability, T/C [20]: 44%; viability, T/C [21]: 41.6%; viability, T/C [22]: 46.8%; viability, T/C [45]: 71.8%; viability, T/C [46]: 46.6%; viability, T/C [25]: 47.5%; viability, T/C [26]: 48%; viability, T/C [27]: 47.8%; viability, T/C [28]: 47.6%; viability, T/C [47]: 76.6%; viability, T/C [48]: 47.4%; viability, T/C [31]: 45.4%; viability, T/C [32]: 44.3%; viability, T/C [33]: 48.2%; viability, T/C [34]: 48.2%

Q: What does the source list for `Cn1ncnc1[C@H]1c2n[nH]c(=O)c3cc(F)cc(c23)N[C@@H]1c1ccc(F)cc1` + Cc1cccc(N(C)C(=O)C2C(O)CCN2c2nc(C)cc(C(F)(F)F)c2C#N)c1?
A: IC50 (second compound 0.0316 µM): > 100 nM; IC50 (second compound 0.1 µM): > 100 nM; IC50 (second compound 0.316 µM): > 100 nM; IC50 (second compound 1 µM): > 100 nM; IC50 (second compound 3.16 µM): > 100 nM; IC50 (second compound 10 µM): > 100 nM; viability, T/C (second compound 0.0316 µM, first compound 0.000316 µM): 97.2%; viability, T/C (second compound 0.0316 µM, first compound 0.001 µM): 86.9%; viability, T/C [37]: 96.1%; viability, T/C [38]: 86.3%; viability, T/C [1]: 93.6%; viability, T/C [2]: 87.5%; viability, T/C (second compound 0.1 µM, first compound 0.000316 µM): 96.9%; viability, T/C (second compound 0.1 µM, first compound 0.001 µM): 95%; viability, T/C [39]: 92.9%; viability, T/C [40]: 91.7%; viability, T/C [7]: 99.9%; viability, T/C [8]: 87.8%; viability, T/C (second compound 0.316 µM, first compound 0.000316 µM): 112%; viability, T/C (second compound 0.316 µM, first compound 0.001 µM): 97.1%; viability, T/C [41]: 93.2%; viability, T/C [42]: 93.5%; viability, T/C [13]: 100%; viability, T/C [14]: 86.4%; viability, T/C (second compound 1 µM, first compound 0.000316 µM): 98.5%; viability, T/C (second compound 1 µM, first compound 0.001 µM): 101%; viability, T/C [43]: 89.2%; viability, T/C [44]: 84.5%; viability, T/C [19]: 92.9%; viability, T/C [20]: 88.5%; viability, T/C (second compound 3.16 µM, first compound 0.000316 µM): 98.3%; viability, T/C (second compound 3.16 µM, first compound 0.001 µM): 101%; viability, T/C [45]: 86.4%; viability, T/C [46]: 89.6%; viability, T/C [25]: 88.6%; viability, T/C [26]: 84.7%; viability, T/C (second compound 10 µM, first compound 0.000316 µM): 93.7%; viability, T/C (second compound 10 µM, first compound 0.001 µM): 95.9%; viability, T/C [47]: 98.1%; viability, T/C [48]: 94.4%; viability, T/C [31]: 94.1%; viability, T/C [32]: 80%
